# Results reported in patent US5986083A, “Synthetic oligomers having phosphonate internucleosidyl linkages of undefined chirality mixed with non-phosphonate internucleosidyl linkages” (priority 1994, dated 1999).
# Test system: complementary RNA target
# Test: Thermal dissociation from complementary RNA target (second Example H)
# Assay type: binding
# Settings: 50% of bound oligomer denatured from RNA target; pH 6.8 denaturation buffer
# Procedure: The following oligomers [SEQ. ID. NO. ] were tested for their ability to bind a complementary RNA target. Each has the same nucleotide sequence but with a different number of phosphodiester and/or methylphosphonate linkages.
# An RNA target containing a tandem array of complementary target sequences connected by noncomplementary sequences (170 nt long) was prepared from synthetic DNA oligonucleotides by standard closing techniques.
# Each of the test oligomers (above) was end-labeled with ^32 p using […] and T4 polynucleotide kinase. The resulting labeled oligomers were purified on a Nensorb-20 column (New England Nuclear/DuPont) according to the manufacturer's specifications. The final specific activity of each oligomer ranged between 2×10^6 and 4×10^6 cpm/pmol (Cerenkov radiation). Annealing reactions were prepared with one of the test oligomers (100,000 cpms) and 250 pmols of RNA target in 20 mM potassium phosphate, 0.03% potassium sarkosylate, 0.1 mM EDTA, pH 7.2, total volume--200 μL. These annealing reactions were heated to 80° C. and then cooled slowly to 4° C. over a period of about 4 to 6 hours. Next, 20 μL aliquots from each tube were transferred to separate tubes containing 0.5 mL of 0.1 M sodium phosphate, 0.1% Triton X-100, pH 6.8. This transfer step was done on ice. The resulting tubes were individually heated at various temperatures "denaturation temperatures", ranging from 10 to 70° C.) in a circulating water bath for five minutes and then quickly cooled by immersion in crushed ice. Next, 10 μL of Amine BioMag (Advanced Magnetics, Inc., Cat. No. M-4100, 50 mg/mL stock in water) was added to the tube and it was vortexed briefly and placed back on ice for 5 minutes. During this time period, the RAN target strands (both free and bound) separated onto the magnetic support. […] Thus, the amount of radioactivity bound to the support was proportional to the amount of hybridized oligomer remaining at each denaturation temperature after five minutes. A curve was then plotted for the percentage of hybridized oligomer remaining at each denaturation temperature. The thermal dissociation temperature (Td) was defined as the temperature at which 50% of the bound oligomer had denatured away from the RNA target. The following table summarizes the results from this experiment.
row,Substance,Td
1,5'-GpAmTmAmTdCmTmGpCmGmGmTmGmTpCmCmAmT-3' [Oligomer 1362],30.7 °C
2,5'-GpAmTmAmTmCmTmGmCmGmGmTmGmTmCmCmAmT-3' [Oligomer 1036],29.3 °C
3,5'-GpAmTmAmTmCpTmGmCpGmGmTmGmTmCpCpAmT-3' [Oligomer 1361],32.2 °C
4,5'-GpAmTpAmTpCmTpGmCmGmGmTpGmTpCmCmAmT-3' [Oligomer 1359],34.0 °C
5,5'-GpAmTpAmTpCpTpGmCpGmGmTpGmTpCpCpAmT-3' [Oligomer 1363],45.2 °C

# Same assay, conditions: per DE bond
row,Substance,ΔTd/DE Bond
1,5'-GpAmTmAmTdCmTmGpCmGmGmTmGmTpCmCmAmT-3' [Oligomer 1362],0.5 °C
2,5'-GpAmTmAmTmCpTmGmCpGmGmTmGmTmCpCpAmT-3' [Oligomer 1361],0.7 °C
3,5'-GpAmTpAmTpCmTpGmCmGmGmTpGmTpCmCmAmT-3' [Oligomer 1359],0.9 °C
4,5'-GpAmTpAmTpCpTpGmCpGmGmTpGmTpCpCpAmT-3' [Oligomer 1363],1.8 °C
